ChEMBL document CHEMBL5252638, “Novel triphenylphosphonium amphiphilic conjugates of glycerolipid type: synthesis, cytotoxic and antibacterial activity, and targeted cancer cell delivery” (RSC Med Chem, 2023)
pIC50: −log10 of the molar value.

Columns and labels:
Enterococcus faecalis [1] = test: Bactericidal activity against Enterococcus faecalis ATCC 29212 by serial microdilution method; format: functional
HuTu80 [2] = test: Induction of ROS production in human HuTu80 cells assessed as increase in fluorescence intensity at 10 uM measured after 48 hrs by flow cytometry based analysis (reference value: 380); format: functional
MCF7 = test: Cytotoxicity against human MCF7 cells assessed as number of viable cells measured after 48 hrs by MTT based colorimetric assay; format: functional, cell-based; details: MCF7, 48 h
HuTu80 [3] = test: Induction of cell cycle arrest in human HuTu80 cells assessed as accumulation of cell at G2/M phase at 5 uM measured after 48 hrs by propidium iodide staining based analysis (reference value: 18.7%); format: functional
HuTu80 [4] = test: Induction of cell cycle arrest in human HuTu80 cells assessed as accumulation of cell at G1/G0 phase at 5 uM measured after 48 hrs by propidium iodide staining based analysis (reference value: 72%); format: functional
HuTu80 [5] = test: Induction of mitochondrial membrane potential loss in human HuTu80 cells assessed as J-aggregates red fluorescence intensity at 10 uM incubated for 24 hrs by JC10 staining based flow cytometry method (reference value: 94.4%); format: functional
Bacillus cereus [6] = test: Antimicrobial activity against Bacillus cereus ATCC 10702 NCTC 8035 by serial microdilution method; format: functional
SK-OV-3 = test: Cytotoxicity against human SK-OV-3 cells assessed as number of viable cells measured after 48 hrs by MTT based colorimetric assay; format: functional, cell-based; details: SK-OV-3, 48 h
HuTu80 [7] = test: Induction of mitochondrial membrane potential loss in human HuTu80 cells assessed as J-monomer green fluorescence intensity at 10 uM incubated for 24 hrs by JC10 staining based flow cytometry method (reference value: 5.7%); format: functional
DU-145 = test: Cytotoxicity against human DU-145 cells assessed as number of viable cells measured after 48 hrs by MTT based colorimetric assay; format: functional, cell-based; details: DU-145, 48 h
HuTu80 [8] = test: Induction of apoptosis in human HuTu80 cells assessed as necrotic cells at 10 uM incubated for 48 hrs by annexin V FITC/propidium iodide staining based flow cytometry analysis (reference value: 4.56%); format: functional
HuTu80 [9] = test: Induction of cell cycle arrest in human HuTu80 cells assessed as accumulation of cell at S phase at 5 uM measured after 48 hrs by propidium iodide staining based analysis (reference value: 8.1%); format: functional
HuTu80 [10] = test: Induction of apoptosis in human HuTu80 cells assessed as viable cells at 5 uM incubated for 48 hrs by annexin V FITC/propidium iodide staining based flow cytometry analysis (reference value: 93.71%); format: functional; details: read-out: Activity
HuTu80 [11] = test: Induction of apoptosis in human HuTu80 cells assessed as early apoptotic cells at 5 uM incubated for 48 hrs by annexin V FITC/propidium iodide staining based flow cytometry analysis (reference value: 1.74%); format: functional
Staphylococcus aureus [12] = test: Bactericidal against Staphylococcus aureus ATCC 6538 P FDA 209P by serial microdilution method; format: functional
A549 = test: Cytotoxicity against human A549 cells assessed as number of viable cells measured after 48 hrs by MTT based colorimetric assay; format: functional, cell-based; details: A549, 48 h
Bacillus cereus [13] = test: Bactericidal activity against Bacillus cereus ATCC 10702 NCTC 8035 by serial microdilution method; format: functional
HuTu80 [14] = test: Induction of mitochondrial membrane potential loss in human HuTu80 cells assessed as J-monomer green fluorescence intensity at 5 uM incubated for 24 hrs by JC10 staining based flow cytometry method (reference value: 5.7%); format: functional
Homo sapiens [15] = species: Homo sapiens; test: Selectivity index, ratio of IC50 for human WI-38 cells to IC50 for human HuTu80 cells
[16] = Cytotoxicity against human WI-38 cells assessed as number of viable cells measured after 48 hrs by MTT based colorimetric assay; format: toxicity, cell-based
[17] = Cytotoxicity against human Chang liver cells assessed as number of viable cells measured after 48 hrs by MTT based colorimetric assay; format: toxicity, cell-based
HuTu80 [18] = test: Induction of ROS production in human HuTu80 cells assessed as increase in fluorescence intensity at 5 uM measured after 48 hrs by flow cytometry based analysis (reference value: 380); format: functional
PC-3 = test: Cytotoxicity against human PC-3 cells assessed as number of viable cells measured after 48 hrs by MTT based colorimetric assay; format: functional, cell-based; details: PC-3, 48 h
HuTu80 [19] = test: Induction of apoptosis in human HuTu80 cells assessed as necrotic cells at 5 uM incubated for 48 hrs by annexin V FITC/propidium iodide staining based flow cytometry analysis (reference value: 4.56%); format: functional
HuTu80 [20] = test: Induction of mitochondrial membrane potential loss in human HuTu80 cells assessed as J-aggregates red fluorescence intensity at 5 uM incubated for 24 hrs by JC10 staining based flow cytometry method (reference value: 94.4%); format: functional
Enterococcus faecalis [21] = test: Antimicrobial activity against Enterococcus faecalis ATCC 29212 by serial microdilution method; format: functional
HuTu80 [22] = test: Induction of apoptosis in human HuTu80 cells assessed as late apoptotic cells at 10 uM incubated for 48 hrs by annexin V FITC/propidium iodide staining based flow cytometry analysis (reference value: 0.00%); format: functional
Escherichia coli [23] = test: Bactericidal activity against Escherichia coli ATCC 25922 by serial microdilution method; format: functional
HuTu80 [24] = test: Induction of apoptosis in human HuTu80 cells assessed as early apoptotic cells at 10 uM incubated for 48 hrs by annexin V FITC/propidium iodide staining based flow cytometry analysis (reference value: 1.74%); format: functional
HuTu80 [25] = test: Induction of cell cycle arrest in human HuTu80 cells assessed as accumulation of cell at S phase at 10 uM measured after 48 hrs by propidium iodide staining based analysis (reference value: 8.1%); format: functional
HuTu80 [26] = test: Induction of cell cycle arrest in human HuTu80 cells assessed as accumulation of cell at G2/M phase at 10 uM measured after 48 hrs by propidium iodide staining based analysis (reference value: 18.7%); format: functional
M-HeLa = test: Cytotoxicity against human HelaM cells assessed as number of viable cells measured after 48 hrs by MTT based colorimetric assay; format: functional, cell-based
HuTu80 [27] = test: Induction of apoptosis in human HuTu80 cells assessed as late apoptotic cells at 5 uM incubated for 48 hrs by annexin V FITC/propidium iodide staining based flow cytometry analysis (reference value: 0.00%); format: functional
T98G = test: Cytotoxicity against human T98G cells assessed as number of viable cells measured after 48 hrs by MTT based colorimetric assay; format: functional, cell-based
HuTu80 [28] = test: Induction of cell cycle arrest in human HuTu80 cells assessed as accumulation of cell at G1/G0 phase at 10 uM measured after 48 hrs by propidium iodide staining based analysis (reference value: 72%); format: functional
HepG2 = test: Cytotoxicity against human HepG2 cells assessed as number of viable cells measured after 48 hrs by MTT based colorimetric assay; format: functional, cell-based; details: HepG2, 48 h
HuTu80 [29] = test: Cytotoxicity against human HuTu80 cells assessed as number of viable cells measured after 48 hrs by MTT based colorimetric assay; format: functional, cell-based; details: HuTu80, 48 h
Escherichia coli [30] = test: Antimicrobial activity against Escherichia coli ATCC 25922 by serial microdilution method; format: functional
HuTu80 [31] = test: Induction of apoptosis in human HuTu80 cells assessed as viable cells at 10 uM incubated for 48 hrs by annexin V FITC/propidium iodide staining based flow cytometry analysis (reference value: 93.71%); format: functional; details: read-out: Activity
Staphylococcus aureus [32] = test: Antimicrobial activity against Staphylococcus aureus ATCC 6538 P FDA 209P by serial microdilution method; format: functional
PANC-1 = test: Cytotoxicity against human PANC-1 cells assessed as number of viable cells measured after 48 hrs by MTT based colorimetric assay; format: functional, cell-based; details: PANC-1, 48 h
Homo sapiens [33] = species: Homo sapiens; test: Selectivity index, ratio of IC50 for human Chang liver cells to IC50 for human PC-3 cells
Homo sapiens [34] = species: Homo sapiens; test: Selectivity index, ratio of IC50 for human Chang liver cells to IC50 for human MCF7 cells
Homo sapiens [35] = species: Homo sapiens; test: Selectivity index, ratio of IC50 for human Chang liver cells to IC50 for human DU-145 cells
Homo sapiens [36] = species: Homo sapiens; test: Selectivity index, ratio of IC50 for human Chang liver cells to IC50 for human HuTu80 cells
Homo sapiens [37] = species: Homo sapiens; test: Selectivity index, ratio of IC50 for human Chang liver cells to IC50 for human SK-OV-3 cells

CCCCCCCC/C=C\CCCCCCCC(=O)OCC(O)COC(=O)CCCC[P+](c1ccccc1)(c1ccccc1)c1ccccc1.[Br-] (stereo not given)
MBC (Enterococcus faecalis [1]): 125 µM
Flu intensity (HuTu80 [2]): 1500
pIC50 (MCF7): 4.28
Activity (HuTu80 [3]): 3%
Activity (HuTu80 [4]): 84%
Activity (HuTu80 [5]): 30.1%
MIC (Bacillus cereus [6]): 7.8 µM
pIC50 (SK-OV-3): 4.28
Activity (HuTu80 [7]): 67.5%
pIC50 (DU-145): 4.39
Activity (HuTu80 [8]): 24.48%
Activity (HuTu80 [9]): 2.1%
viability at 5 µM (HuTu80 [10]): 63.7%
Activity (HuTu80 [11]): 3.35%
MBC (Staphylococcus aureus [12]): 500 µM
pIC50 (A549): 4.15
MBC (Bacillus cereus [13]): 500 µM
Activity (HuTu80 [14]): 49%
Ratio IC50 (Homo sapiens [15]): 5.1
IC50 at 48 h [16]: 53.1 µM
IC50 at 48 h [17]: 34 µM
Flu intensity (HuTu80 [18]): 700
pIC50 (PC-3): 4.29
Activity (HuTu80 [19]): 17.73%
Activity (HuTu80 [20]): 51.1%
MIC (Enterococcus faecalis [21]): 7.8 µM
Activity (HuTu80 [22]): 33.13%
MBC (Escherichia coli [23]): 125 µM
Activity (HuTu80 [24]): 4.78%
Activity (HuTu80 [25]): 1.2%
Activity (HuTu80 [26]): 1.1%
pIC50 (M-HeLa): 4.22
Activity (HuTu80 [27]): 15.18%
pIC50 (T98G): 4.20
Activity (HuTu80 [28]): 87%
pIC50 (HepG2): 4.00
pIC50 (HuTu80 [29]): 5.00
MIC (Escherichia coli [30]): 125 µM
viability at 10 µM (HuTu80 [31]): 37.6%
MIC (Staphylococcus aureus [32]): 31.3 µM
pIC50 (PANC-1): 4.20

CCCCC/C=C\C/C=C\CCCCCCCC(=O)OCC(COC(=O)CCCC[P+](c1ccccc1)(c1ccccc1)c1ccccc1)OC(=O)CCCC[P+](c1ccccc1)(c1ccccc1)c1ccccc1 (stereo not given)
MBC (Enterococcus faecalis [1]): 51.2 µM
pIC50 (MCF7): 4.61
MIC (Bacillus cereus [6]): 6.4 µM
pIC50 (SK-OV-3): 4.40
Ratio IC50 (Homo sapiens [33]): 1.1
pIC50 (DU-145): 4.53
MBC (Staphylococcus aureus [12]): 3.2 µM
pIC50 (A549): 4.15
MBC (Bacillus cereus [13]): 500 µM
Ratio IC50 (Homo sapiens [34]): 1.8
IC50 at 48 h [16]: 41.1 µM
IC50 at 48 h [17]: 45 µM
pIC50 (PC-3): 4.39
MIC (Enterococcus faecalis [21]): 12.8 µM
MBC (Escherichia coli [23]): 12.8 µM
Ratio IC50 (Homo sapiens [35]): 1.5
pIC50 (M-HeLa): 4.27
Ratio IC50 (Homo sapiens [36]): 5
pIC50 (T98G): 4.29
pIC50 (HepG2): 4.19
pIC50 (HuTu80 [29]): 5.05
Ratio IC50 (Homo sapiens [37]): 1.1
MIC (Escherichia coli [30]): 6.4 µM
MIC (Staphylococcus aureus [32]): 3.2 µM
pIC50 (PANC-1): 4.33

O=c1[nH]cc(F)c(=O)[nH]1 [FLUOROURACIL]
pIC50 (SK-OV-3): 4.33
pIC50 (A549): 4.49
IC50 at 48 h [16]: 62 µM
IC50 at 48 h [17]: 19 µM
pIC50 (PC-3): 4.99
pIC50 (M-HeLa): 4.21
pIC50 (HuTu80 [29]): 4.19
pIC50 (PANC-1): 4.00

COc1cccc2c1C(=O)c1c(O)c3c(c(O)c1C2=O)C[C@@](O)(C(=O)CO)C[C@@H]3O[C@H]1C[C@H](N)[C@H](O)[C@H](C)O1 [DOXORUBICIN]
pIC50 (MCF7): 6.40
pIC50 (SK-OV-3): 5.17
pIC50 (DU-145): 6.52
pIC50 (A549): 6.15
IC50 at 48 h [16]: 0.4 µM
IC50 at 48 h [17]: 0.5 µM
pIC50 (M-HeLa): 5.68
pIC50 (T98G): 6.00
pIC50 (HepG2): 6.70
pIC50 (HuTu80 [29]): 6.70
pIC50 (PANC-1): 5.66
